Assays:
Beta-carotene assay = assay: Beta-carotene assay
Procedure: In this assay, the antioxidant activity of a component is assessed by its ability to prevent bleaching of a beta-carotene solution by radicals formed upon illumination.
A beta-carotene solution (20 mg/ml) was prepared freshly in 1-octanol (Sigma) and 900 μl aliquots were transferred to 2 ml spectrophotometer cuvettes. 100 μl of 50 mMole/liter solutions of enhancing agents of the invention (dissolved in 1-octanol) were added to the solution (final concentration of the enhancing agents is 5 mMole/liter). The solutions were illuminated for up to 5 hours and spectrophotometric analysis was carried out at indicated time points.

[1] = system: MRSA (Methicillin-Resistant Staphylococcus aureus); assay: Growth retardation of MRSA in TS broth with enzyme/substrate system; type: cell-based; conditions: FIG. 8; 0.08% dilution of enzyme/substrate
Procedure: A bacterial cell culture (A600=0.02) was grown in Tryptic Soy (TS) broth (Difco™, Becton Dickinson) in the presence of a 0.08% dilution (suboptimal concentration) of the enzyme/substrate system described in example 1. […] (see FIG. 8). It is observed that this effect is maintained for a significant time period.

Candida albicans = assay: Growth retardation of Candida albicans in SD broth with enzyme/substrate system; type: cell-based; conditions: FIG. 9; 0.02% dilution of enzyme/substrate
Procedure: A yeast cell culture (A600=0.05) was grown in Sabouraud Dextrose (SD) broth (Difco™, Becton Dickinson) in the presence of a 0.02% dilution (suboptimal concentration) of the enzyme/substrate system described in example 1.

[2] = DPPH-radical bleaching assay
Procedure: DPPH (1,1-DiPhenyl-2-PicrylHydrazyl) is a cell-permeable, stable free radical that acts as a hydrogen radical scavenger, and is used as a screening tool for detecting free radical scavenging activity of antioxidants. When a radical solution is brought into contact with an antioxidant, the radical-molecule is reduced and thereby looses its characteristic purple colour. This “bleaching” can be monitored by spectrophotometric analysis.
A DPPH-radical solution (15 mg/ml) was prepared freshly in 1-octanol (Sigma) and 900 μl aliquots were transferred to 2 ml spectrophotometer cuvettes. 100 μl of 50 mMole/liter solutions of enhancing agents (dissolved in 1-octanol) were added to the solution (final concentration of the enhancing agents is 5 mMole/liter). Spectrophotometric analysis of the samples was carried out within 5 minutes, in order to prevent quenching caused by free (e.g. air born) radicals.

E. coli = assay: Antibacterial activity on E. coli of enhancing agents and oxidase/peroxidase; type: cell-based, Escherichia coli; conditions: FIG. 7; 6 hours of incubation
Procedure: Experiments using the conditions described in Example 1 and 2 were performed with Gram-negative bacteria (E. coli).

[3] = system: HaCat keratinocytes cells; assay: Cell toxicity (MTT) of oxidase/peroxidase alginate gel with guaiacol; type: cell-based; conditions: 200 μM guaiacol in gel, diluted 1 g in 9 ml, 24 hours; p=0.31
Procedure: (§1) HaCat keratinocytes cells and mouse 3T3 fibroblast cells were grown in the following growth medium: DMEM medium (high glucose; Sigma) supplemented with heat inactivated calf serum (10%) (Life Technologies), L-glutamine (4 mM) (Sigma) and Streptomycin/Penicillin (100 U) (Sigma). […] As a control an identical gel without guaiacol was prepared. One gram of the alginate gel was dissolved in 9 ml growth medium (diluted alginate gel). Cells were seeded at subconfluency. After overnight incubation at 37° C., 5% CO2, growth medium was replaced by diluted alginate gel and the cells were incubated at 37° C., 5% CO2 for another 24 hours. […] Cells were incubated in this MTT-medium for an additional 3 h. Cell viability and metabolism was assayed by determining the chromophoric conversion product of MMT at 570 nm.

[4] = system: mouse 3T3 fibroblast cells; assay: as above; type: cell-based; conditions: 200 μM guaiacol in gel, diluted 1 g in 9 ml, 24 hours; p=0.32
Procedure: as §1

S. aureus = assay: Antibacterial activity on S. aureus of oxidase/peroxidase with enhancing agents; type: cell-based, Staphylococcus aureus
Procedure: Bacterial cells (S. aureus) were plated on Trypticase Soybean Agar plates (Becton Dickinson) and incubated overnight at 37° C. Cells were recovered from plates and mixed with NaCl-peptone broth buffer (Merck). The amount of medium is adjusted to give a bacterial suspension with a cell density of OD600=0.25 for bacteria.
For the examples described in the following examples, a fresh dilution of 0.25% (v/v) enzyme-substrate (Biovert™) stock solutions were prepared for each independent test. The Biovert™ enzyme stock solution contains 1527 U/ml lactoperoxidase; 2016 U/ml glucose oxidase; the Biovert™ substrate stock solution comprises: 55% (w/v) glucose, 0.51% (w/v) KSCN, 0.73% (w/v) KI.
In order to assess the synergistic action of the enhancing agent on the enzyme-substrate enhancing agent, the concentration of enzyme-substrate was adjusted to obtain conditions wherein the oxidase/peroxidase in a hydrogel performs limited but measurable antibacterial activity. The above mentioned (0.25% (v/v)) solution has accordingly been further diluted to 0.017% (v/v).
A 0.33% (w/v) Na-alginaat (Kelset), 0.66% (v/v) PEG400 gel solution was prepared in water, autoclaved and subsequently cooled to room temperature.
For the antibacterial assay the following components are mixed: 100 μl of bacterial cell suspension, 100 μl enzyme-substrate master solution (0.25%), 1 g (=1 ml) gel solution, 0.1-1 mg enhancing agent, 300 μl milliQ water. Final concentrations of the enzyme/substrate in the reaction mixture are 0.015 U/ml glucose oxidase, 0.011 U/ml lactoperoxidase, 0.00007% (w/v) potassium thiocyanate, 0.0001% (w/v) potassium iodide, 0.0076% glucose, and 0.066-0.66 mg/ml enhancing agent.

[5] = system: MRSA (methicillin resistant S. aureus) bacteria; assay: Antibacterial activity on MRSA of oxidase/peroxidase with enhancing agents; type: cell-based, Staphylococcus aureus
Procedure: The effect of vanillin and guaiacol on the peroxidase/oxidase activity was assayed on MRSA (methicillin resistant S. aureus) bacteria using growth conditions and assay conditions as described in example 1.

## COc1ccccc1O [Guaiacol, 2-methoxyphenol]
Beta-carotene assay; 5 mMole/liter in 1-octanol
  Antioxidant properties: Beta-carotene assay: ++
Beta-carotene assay; FIG. 3
  antioxidant performance in the beta carotene bleaching assay: very effective
[1]
  suppression of bacterial growth on addition to enzyme/substrate system: additional suppression of the bacterial growth
Candida albicans
  suppression of fungal growth on addition to enzyme/substrate system: additional suppression of the fungal growth
[2]; 5 mMole/liter in 1-octanol
  Antioxidant properties: DPPH assay: +++
[2]; FIG. 4
  potency as reducer / antioxidant efficiency: nearly as efficient as gallic acid and propyl gallate
E. coli
  antibacterial effectiveness in combination with the enzyme-substrate: more effective than enzyme-substrate alone
[3]
  metabolic activity of cells (MTT), alginate hydrogel with versus without guaiacol: no statistical difference
[4]
  metabolic activity of cells (MTT), alginate hydrogel with versus without guaiacol: no statistical difference
S. aureus; FIG. 1, enhancing agent and ES
  bactericidal capacity when mixed with the enzyme-substrate solution: markedly enhanced the bactericidal capacity
S. aureus; FIG. 1, enhancing agent only
  effect on cell survival of the separate systems: only moderately affected cell survival
S. aureus; antimicrobial effect
  Enhancing effect on oxidase/peroxidase assay: +
[5]; FIG. 5, ES + enhancing agent
  enhancing effect on the peroxidase/oxidase activity: enhancing effect
[5]; FIG. 5, enhancing agent alone
  antibacterial effect of compound alone: limited effect
[5]; FIG. 6, different concentrations of guaiacol
  enhancing effect on peroxidase/oxidase activity: significant enhancing effect

Source: US8679526B2, “Antimicrobial peroxidase compositions” (Flen Pharma N.V., priority 2005, dated 2014)
